Assay [1] has as its system ATRA-resistant NB4-LR2. As to the kind of experiment: Induction of mitosis in human ATRA-resistant NB4-LR2 cells assessed as upregulation of pS10-histone expression at 2 uM measured after 3 hrs by Western blot analysis. It is filed as functional, cell-based.
A short description of assay [2]: Induction of apoptosis in human ATRA-resistant NB4-LR2 cells assessed as viable cells at 1 uM incubated for 24 hrs by Annexin V-FITC/PI staining based flow cytometric analysis (reference value: 87.30 %). To be noted: read-out: Activity. It is filed as functional. Background: Flow cytometry measures light scatter and fluorescence of single cells or particles in a stream.

The target of assay [3] is T1, Retinoic acid receptor beta (Homo sapiens) (UniProt P10826).
T1 sequence (whole entry): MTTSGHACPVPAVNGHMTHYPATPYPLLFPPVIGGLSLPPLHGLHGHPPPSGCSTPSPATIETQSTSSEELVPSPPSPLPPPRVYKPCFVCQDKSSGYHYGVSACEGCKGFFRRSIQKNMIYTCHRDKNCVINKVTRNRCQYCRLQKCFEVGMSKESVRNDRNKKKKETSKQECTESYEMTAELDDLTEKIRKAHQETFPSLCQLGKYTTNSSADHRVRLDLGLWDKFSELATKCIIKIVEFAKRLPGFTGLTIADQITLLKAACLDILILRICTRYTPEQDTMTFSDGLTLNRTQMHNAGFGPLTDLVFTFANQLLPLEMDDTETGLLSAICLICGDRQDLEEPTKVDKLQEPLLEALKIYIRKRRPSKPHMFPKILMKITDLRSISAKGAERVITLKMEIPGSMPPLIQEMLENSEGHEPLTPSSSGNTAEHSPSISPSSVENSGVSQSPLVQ
As to the kind of experiment: Agonist activity at Gal4-fused full length RARbeta LBD (unknown origin) transfected in HEK293T cells co-transfected with pG5luc reporter and Renilla-luc at 0.1 to 1 uM incubated for 12 hrs by luciferase reporter gene assay. It is filed as cell-based. To be noted: dose 0.1-1 µM. Background: In a reporter assay the amount or activity of a reporter protein is the signal.

Another assay relates to Jurkat. As to the kind of experiment: Induction of cell differentiation in human Jurkat cells at 0.5 uM incubated for 6 days by CD11b staining based flow cytometric analysis. It is filed as functional. As to conditions: time 6.0 day.
The subject of assay [4] is NB-4. As to the kind of experiment: Antiproliferative activity against human NB4 cells assessed as inhibition of cell viability up to 3.5 uM incubated for 3 days by CCK8 assay relative to control. It is filed as functional. As to conditions: time 3 day. For orientation: Tetrazolium assays rely on reduction of a dye to a coloured formazan, in cell work by metabolically active cells.

Assay [5] has as its target T2, Retinoic acid receptor gamma (Homo sapiens) (UniProt P13631).
T2 sequence (whole entry): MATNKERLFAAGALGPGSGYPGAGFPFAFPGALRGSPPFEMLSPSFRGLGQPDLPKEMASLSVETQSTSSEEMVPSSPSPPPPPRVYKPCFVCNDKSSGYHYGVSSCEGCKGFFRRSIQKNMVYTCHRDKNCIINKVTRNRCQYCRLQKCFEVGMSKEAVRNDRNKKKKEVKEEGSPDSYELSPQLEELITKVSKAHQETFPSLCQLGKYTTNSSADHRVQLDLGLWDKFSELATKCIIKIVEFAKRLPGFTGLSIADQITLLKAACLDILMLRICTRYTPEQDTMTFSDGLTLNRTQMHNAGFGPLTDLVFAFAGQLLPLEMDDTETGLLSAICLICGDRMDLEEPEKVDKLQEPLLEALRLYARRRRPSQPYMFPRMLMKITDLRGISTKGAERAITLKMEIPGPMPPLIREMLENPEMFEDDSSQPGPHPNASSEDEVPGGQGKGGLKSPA
As to the kind of experiment: Agonist activity at Gal4-fused full length human RARgamma LBD transfected in HEK293T cells co-transfected with pG5luc reporter and Renilla-luc assessed as transactivation by measuring maximal efficacy incubated for 12 hrs by dual luciferase reporter gene assay relative to control. It is filed as cell-based.

The test system of assay [6] is NB-4. As to the kind of experiment: Induction of apoptosis in human NB4 cells assessed as necrotic cells at 1 uM incubated for 24 hrs by Annexin V-FITC/PI staining based flow cytometric analysis (reference value: 0.07 %). It is filed as functional.
The target of assay [7] is T3, Retinoic acid receptor RXR-gamma (Homo sapiens) (UniProt P48443).
T3 sequence (whole entry): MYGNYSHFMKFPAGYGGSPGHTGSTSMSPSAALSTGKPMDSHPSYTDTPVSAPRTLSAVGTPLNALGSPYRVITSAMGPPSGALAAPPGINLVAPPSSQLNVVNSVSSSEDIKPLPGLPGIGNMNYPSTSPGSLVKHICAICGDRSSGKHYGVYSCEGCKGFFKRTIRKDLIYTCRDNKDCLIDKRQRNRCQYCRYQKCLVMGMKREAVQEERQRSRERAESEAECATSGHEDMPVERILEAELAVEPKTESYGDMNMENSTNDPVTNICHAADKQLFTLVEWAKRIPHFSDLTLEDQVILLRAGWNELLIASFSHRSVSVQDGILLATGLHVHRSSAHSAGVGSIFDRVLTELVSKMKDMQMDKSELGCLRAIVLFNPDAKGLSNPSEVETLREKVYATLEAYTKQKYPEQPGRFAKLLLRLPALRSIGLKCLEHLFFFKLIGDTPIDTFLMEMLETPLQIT
As to the kind of experiment: Competitive binding affinity to Gal4-fused full length RXRgamma LBD (unknown origin) transfected in HEK293T cells co-transfected with pG5luc reporter and Renilla-luc at 0.1 to 1 uM incubated for 12 hrs in presence of ATRA by luciferase reporter gene assay. It is filed as cell-based. To be noted: dose 0.1-1 µM.

The subject of assay [8] is K562. As to the kind of experiment: Effect on cell cycle population in human K562 cells at 0.5 uM by DAPI staining based flow cytometric analysis. It is filed as functional.
In assay [9] the target is Peroxisome proliferator-activated receptor gamma (Homo sapiens) (UniProt P37231). As to the kind of experiment: Agonist activity at Gal4-fused full length PPARgamma LBD (unknown origin) transfected in HEK293T cells co-transfected with pG5luc reporter and Renilla-luc at 0.1 to 1 uM incubated for 12 hrs by luciferase reporter gene assay. It is filed as cell-based. To be noted: dose 0.1-1 µM.

In assay [10] the test system is ATRA-resistant NB4-LR2. As to the kind of experiment: Cell cycle arrest in human ATRA-resistant NB4-LR2 cells assessed as increase in cyclin B1 expression at 2 uM incubated for 3 to 24 hrs by Western blot analysis. It is filed as functional, cell-based. To be noted: time 3-24 hrs.
The target of assay [11] is T4, Retinoic acid receptor gamma (Homo sapiens, UniProt P13631).
T4 sequence (P13631 whole entry): T2 sequence (whole entry)
As to the kind of experiment: Agonist activity at Gal4-fused full length human RARgamma LBD transfected in HEK293T cells co-transfected with pG5luc reporter and Renilla-luc assessed as transactivation incubated for 12 hrs by dual luciferase reporter gene assay. It is filed as cell-based. As to conditions: read-out: EC50.

Assay [12] is described as follows: Induction of apoptosis in human ATRA-resistant NB4-LR2 cells assessed as late apoptotic cells at 1 uM incubated for 24 hrs by Annexin V-FITC/PI staining based flow cytometric analysis (reference value: 7.23 %). It is filed as functional.
Assay [13] has as its system K562. As to the kind of experiment: Induction of apoptosis in human K562 cells assessed as early apoptotic cells at 1 uM incubated for 24 hrs by Annexin V-FITC/PI staining based flow cytometric analysis (reference value: 0.91 %). It is filed as functional.
For assay [14], the system named is NB-4. As to the kind of experiment: Induction of cell differentiation in human NB4 cells assessed as morphological changes at 0.5 uM incubated for 6 days by Wright-Giemsa staining based analysis. It is filed as functional. As to conditions: time 6.0 day.
Assay [15] has as its system NB-4. As to the kind of experiment: Induction of cell differentiation in human NB4 cells at 0.5 uM incubated for 4 to 6 days by CD11b staining based flow cytometric analysis. It is filed as functional. To be noted: time 4-6 day.

The source made the active and inactive calls. The calls are words filed in the database; no cut-off is given here.

Sequence of Peroxisome proliferator-activated receptor gamma (Homo sapiens) (P37231 whole entry, the tested form may be a part): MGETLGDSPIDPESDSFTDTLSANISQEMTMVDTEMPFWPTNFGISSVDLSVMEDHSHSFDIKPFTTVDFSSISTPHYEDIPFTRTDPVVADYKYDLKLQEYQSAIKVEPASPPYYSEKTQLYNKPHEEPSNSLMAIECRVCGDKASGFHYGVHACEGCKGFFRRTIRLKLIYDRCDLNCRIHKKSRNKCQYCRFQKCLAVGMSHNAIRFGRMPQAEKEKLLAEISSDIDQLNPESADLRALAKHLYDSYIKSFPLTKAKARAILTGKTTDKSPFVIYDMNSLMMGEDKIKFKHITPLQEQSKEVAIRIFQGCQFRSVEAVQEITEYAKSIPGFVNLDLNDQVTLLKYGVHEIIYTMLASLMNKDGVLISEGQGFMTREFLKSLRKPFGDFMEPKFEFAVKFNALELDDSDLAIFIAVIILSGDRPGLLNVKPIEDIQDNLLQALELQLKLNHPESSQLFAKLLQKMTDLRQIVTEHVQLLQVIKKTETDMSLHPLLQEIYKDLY

As to `Cc1cc2c(cc1C(=O)/C(Br)=C\c1ccc(C(=O)O)cc1)C(C)(C)CCC2(C)C`, the outcome in the assay with ATRA-resistant NB4-LR2 [1], with ATRA-resistant NB4-LR2 [10], in the assay with NB-4 [14] and in the assay with NB-4 [15] was Active. In addition, in assay [2], the viability at 1 µM came out at 67.8%. Besides, the Activity result was “Minimal_effect” in assay [3]; 0.52% in the assay on NB-4 [6]; “Not active; No Significant Competitive Effect On Atra Activation Observed” in assay [7]; “Weak_effect” in [9]; 11.42% in [12]; 0.71% with K562 [13]. Moreover, the result in the assay on Jurkat and in the assay with K562 [8] was inactive. In addition, the “inhibition (INH)” value with NB-4 [4] was found to be 100%. The Emax in assay [5] came out at 2%. Moreover, in [11], the concentration for a half-maximal effect (EC50) is 1140 nM.

For `Cc1cc2c(cc1C(=O)/C(Br)=C/c1ccc(C(=O)O)cc1)C(C)(C)CCC2(C)C`, the outcome in the assay on ATRA-resistant NB4-LR2 [1], in the assay on ATRA-resistant NB4-LR2 [10], in the assay on NB-4 [14] and with NB-4 [15] was Active. Moreover, the viability at 1 µM in assay [2] is 56.2%. Also, the Activity result in [3] is “Minimal_effect”; in the assay on NB-4 [6], 1.3%; in assay [7], “Not active; No Significant Competitive Effect On Atra Activation Observed”; in assay [9], “Weak_effect”; in assay [12], 13.3%; in the assay on K562 [13], 1%. Further, the result in the assay on Jurkat and in the assay on K562 [8] was inactive. For the same molecule, the “inhibition (INH)” value with NB-4 [4] stood at 100%. For the same molecule, the maximal response (Emax) in [5] was 15%. Besides, in [11], the 50% effective concentration (EC50) was 2240 nM.

For orientation: Emax means the maximal effect, on the per cent scale that the assay sets. By EC50 is commonly meant the concentration that produces a half-maximal response.
